Source: patent US12492173B2, “Herbicidal substituted N-tetrazolyl aryl carboxamides” (Bayer Aktiengesellschaft, priority 2019, dated 2025)

Legend:
Type in all cases: in vivo
Echinochloa crus-galli = experiment: Pre-emergence herbicidal action, ECHCG; parameters: key to Herbicidal action against ECHCG: % activity: 100 = plants have died, 0 = like control plants; settings: for herbicidal action ECHCG / herbicidal activity ECHCG: dosage 320 g/ha; for herbicidal activity ECHCG: scored visually after 3 weeks vs untreated controls (100% = plants have died)
How it was run: (§1)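 Sown pots (sandy loam) sprayed pre-emergence → greenhouse → visual rating at 3 weeks; % activity vs untreated control, 100% = dead.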

Setaria viridis = experiment: Pre-emergence herbicidal action, SETVI; parameters: key to Herbicidal action against SETVI: % activity: 100 = plants have died, 0 = like control plants; settings: for herbicidal action SETVI / herbicidal activity SETVI: dosage 320 g/ha; for herbicidal activity SETVI: scored visually after 3 weeks vs untreated controls (100% = plants have died)
How it was run: as §1

Stellaria media = experiment: Pre-emergence herbicidal action, STEME; settings: dosage 320 g/ha; for herbicidal activity STEME: scored visually after 3 weeks vs untreated controls (100% = plants have died)
How it was run: as §1

Veronica persica = experiment: Pre-emergence herbicidal action, VERPE; parameters: key to Herbicidal action against VERPE: % activity: 100 = plants have died, 0 = like control plants; settings: for herbicidal action VERPE / herbicidal activity VERPE: dosage 320 g/ha; for herbicidal activity VERPE: scored visually after 3 weeks vs untreated controls (100% = plants have died)
How it was run: as §1

Amaranthus retroflexus = experiment: Post-emergence herbicidal action, AMARE; parameters: key: % herbicidal action vs untreated; 100 = plants died, 0 = like control
How it was run: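 One-leaf-stage weeds, raised from seed in greenhouse sandy loam, received a single foliar spray of compound as wettable powder or emulsion concentrate with 0.2% wetting agent added. Growth continued under optimal conditions for about 3 weeks before percent damage was scored by eye against controls.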

[1] = comparative experiment, 80 g of a.i./ha

SMILES	herbicidal action ECHCG (Echinochloa crus-galli) [%]	herbicidal action SETVI (Setaria viridis) [%]	herbicidal action STEME (Stellaria media) [%]	herbicidal action VERPE (Veronica persica) [%]	herbicidal action AMARE (Amaranthus retroflexus; Dosage 80 g/ha)	herbicidal activity ECHCG (Echinochloa crus-galli) [%]	herbicidal activity SETVI (Setaria viridis) [%]	herbicidal activity STEME (Stellaria media) [%]	herbicidal activity VERPE (Veronica persica) [%]	other results
CCn1nnnc1NC(=O)c1ccc(Cl)c(CSC)c1Cl [Example 2-559]	100	90	90	100	100					
Cn1nnnc1NC(=O)c1ccc(C(F)(F)F)c(CSCC(F)(F)F)c1Cl [Example 1-311]					100	100	100	100	100	
CCCn1nnnc1NC(=O)c1ccc(C(F)(F)F)c(CSC)c1SC [Example 3-161]	100	90	100	100	100					
CCS(=O)(=O)Cc1c(C(F)(F)F)ccc(C(=O)Nc2nnnn2C)c1C [Example 1-88]	100	100		100	90					
COc1c(C(=O)Nc2nnnn2C)ccc(Cl)c1CSC [Example 1-570]	90		80	80						Herbicidal action against AMARE (Amaranthus retroflexus; post-emergence, dosage 80 g/ha): 90
CCSCc1c(C(F)F)ccc(C(=O)Nc2nnnn2C)c1Cl [Example 1-323]						100	100	100	100	herbicidal action AMARE (Amaranthus retroflexus; post-emergence, dosage 80 g/ha): 90%
CCn1nnnc1NC(=O)c1ccc(C(F)F)c(CS(C)(=O)=O)c1Cl [Example 2-322]						100	100	100	100	herbicidal action AMARE (Amaranthus retroflexus; post-emergence, dosage 80 g/ha): 80%
CCn1nnnc1NC(=O)c1ccc(I)c(C[S+](C)[O-])c1Cl (centres unmarked) [Example 2-363]					100	100	100	100	100	
Cn1nnnc1NC(=O)c1ccc(C(F)(F)F)c(CSC2CC2)c1Cl [Example 1-302]						100	100	100	100	herbicidal action AMARE (Amaranthus retroflexus; post-emergence, dosage 80 g/ha): 100%
CCn1nnnc1NC(=O)c1ccc(C(F)F)c(CSC)c1Cl [Example 2-320]					100	100	100	100	100	
CCCn1nnnc1NC(=O)c1ccc(C(F)(F)F)c(CSCC)c1C [Example 3-86]	100	90		100						
Cn1nnnc1NC(=O)c1ccc(C(F)(F)F)c(CS(C)(=O)=O)c1C(F)(F)C(F)(F)F [Example 1-552]					90	100	100	100	100	
CSCc1c(C)ccc(C(=O)Nc2nnnn2C)c1Cl [Example 1-287]	80	90	90	100	100					
CCCn1nnnc1NC(=O)c1ccc(S(C)(=O)=O)c(CSC)c1C [Example 3-37]			90	100	100					
CCn1nnnc1NC(=O)c1ccc(S(C)(=O)=O)c(CS(C)(=O)=O)c1Cl [Example 2-280]	100	90	80	100						Herbicidal action against AMARE (Amaranthus retroflexus; post-emergence, dosage 80 g/ha): 90
CCCn1nnnc1NC(=O)c1ccc(C(F)(F)F)c(CS(C)(=O)=O)c1Br [Example 3-382]	90		100	100	100					
CCCn1nnnc1NC(=O)c1ccc(C(F)(F)F)c(CS(C)(=O)=O)c1SC [Example 3-163]					90	100	100	100	100	
Cc1c(C(=O)Nc2nnnn2C)ccc(C(F)F)c1C[S+](C)[O-] (centres unmarked) [Example 1-108]	100	100		90	100					
CCS(=O)(=O)Cc1c(C(F)F)ccc(C(=O)Nc2nnnn2C)c1Cl [Example 1-325]						100	100	100	100	
CCSCc1c(C(F)(F)F)ccc(C(=O)Nc2nnnn2CC)c1C [Example 2-86]	100	100		100						herbicidal action AMARE (Amaranthus retroflexus; post-emergence, dosage 80 g/ha): 80%
CCCn1nnnc1NC(=O)c1ccc(C(F)(F)F)c(C[S+](C)[O-])c1OC (centres unmarked) [Example 3-135]	100	100	100		100					
CCCn1nnnc1NC(=O)c1ccc(S(C)(=O)=O)c(CS(C)(=O)=O)c1C [Example 3-39]	90	80		100	100					
CCCn1nnnc1NC(=O)c1ccc(C(F)F)c(CS(=O)(=O)CC)c1Cl [Example 3-325]						100	100	100		
CCS(=O)(=O)c1c(C(F)(F)F)ccc(C(=O)Nc2nnnn2C)c1Br [Example V-13, 2-bromo-3-(ethylsulfonyl)-N-(1-methyl-1-1H-tetrazol-5-yl)-4-(trifluoromethyl)benzamide, reference compound]										Herbicidal action against ECHCG (Echinochloa crus-galli; [1]): 0; Herbicidal action against SETVI (Setaria viridis; [1]): 0; Herbicidal action against VERPE (Veronica persica; [1]): 0; Herbicidal action against AMARE (Amaranthus retroflexus; comparative experiment, post-emergence, 20 g of a.i./ha): 0
Cc1ccc(C(=O)Nc2nnnn2C)c(Cl)c1C[S+](C)[O-] (racemic) [Example 1-288]	90		90	90	100					
COc1c(C(=O)Nc2nnnn2C)ccc(C(F)(F)F)c1C[S+](C)[O-] (centres unmarked) [Example 1-135]	100		80	100	100					
CCCn1nnnc1NC(=O)c1ccc(C(F)(F)F)c(CS(=O)(=O)CC)c1Cl [Example 3-301]	100	100	90	100						
CCn1nnnc1NC(=O)c1ccc(C(F)(F)F)c(CS(=O)(=O)CC)c1C [Example 2-88]	100	100		100	90					
CCn1nnnc1NC(=O)c1ccc(C(F)F)c(C[S+](C)[O-])c1C (centres unmarked) [Example 2-108]	90	100		100	100					
